Key:
[1] = molecular target: STE20-like serine/threonine-protein kinase (Homo sapiens) (UniProt Q9H2G2); test: Residual activity of human SLK/STK2 using histone H3 as substrate at 1 uM in presence of 32P-ATP by Hotspot assay relative to control
[2] = molecular target: Calcium/calmodulin-dependent protein kinase type II subunit beta (Homo sapiens) (UniProt Q13554); test: Residual activity of human CAMK2b using KKALRRQETVDAL as substrate at 1 uM in presence of 32P-ATP by Hotspot assay relative to control
[3] = molecular target: Serine/threonine-protein kinase PLK1 (Homo sapiens) (UniProt P53350); test: Inhibition of human PLK1 using casein as substrate at 1 uM in presence of 32P-ATP by Hotspot assay relative to control; values are per cent of control
[4] = molecular target: T1, Myotonin-protein kinase (Homo sapiens) (UniProt Q09013); test: Inhibition of human DMPK using KKRNRRLSVA as substrate at 1 uM in presence of 32P-ATP by Hotspot assay relative to control; values are per cent of control
T1 sequence (whole entry): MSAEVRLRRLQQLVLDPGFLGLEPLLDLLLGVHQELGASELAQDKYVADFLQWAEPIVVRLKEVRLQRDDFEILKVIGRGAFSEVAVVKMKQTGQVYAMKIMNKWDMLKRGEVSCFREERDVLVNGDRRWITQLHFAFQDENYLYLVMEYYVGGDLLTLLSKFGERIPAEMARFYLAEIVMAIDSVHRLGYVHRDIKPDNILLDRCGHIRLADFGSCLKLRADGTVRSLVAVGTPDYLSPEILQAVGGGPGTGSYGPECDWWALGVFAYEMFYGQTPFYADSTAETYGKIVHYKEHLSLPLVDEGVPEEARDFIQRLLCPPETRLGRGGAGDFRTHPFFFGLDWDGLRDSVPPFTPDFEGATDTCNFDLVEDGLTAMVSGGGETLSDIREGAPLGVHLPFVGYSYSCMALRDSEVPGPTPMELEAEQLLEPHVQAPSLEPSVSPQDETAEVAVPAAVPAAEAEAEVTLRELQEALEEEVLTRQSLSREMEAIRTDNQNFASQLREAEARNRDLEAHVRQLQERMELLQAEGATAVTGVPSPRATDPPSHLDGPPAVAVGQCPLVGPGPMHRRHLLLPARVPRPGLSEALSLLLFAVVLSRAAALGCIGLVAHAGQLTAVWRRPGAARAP

[5] = molecular target: Serine/threonine-protein kinase pim-2 (Homo sapiens) (UniProt Q9P1W9); test: Inhibition of human PIM2 using RSRHSSYPAGT as substrate at 1 uM in presence of 32P-ATP by Hotspot assay relative to control; values are per cent of control
[6] = molecular target: Activated CDC42 kinase 1 (Homo sapiens) (UniProt Q07912); test: Inhibition of human ACK1 using EAIYAAPFAKKK as substrate at 1 uM in presence of 32P-ATP by Hotspot assay relative to control; values are per cent of control
[7] = molecular target: Aurora kinase B (Homo sapiens) (UniProt Q96GD4); test: Inhibition of human Aurora B using H-LRRASLG as substrate at 1 uM in presence of 32P-ATP by Hotspot assay relative to control; values are per cent of control
[8] = molecular target: Mitogen-activated protein kinase kinase kinase 9 (Homo sapiens) (UniProt P80192); test: Inhibition of human MLK1/MAP3K9 using casein as substrate at 1 uM in presence of 32P-ATP by Hotspot assay relative to control; values are per cent of control
[9] = molecular target: Non-receptor tyrosine-protein kinase TYK2 (Homo sapiens) (UniProt P29597); test: Inhibition of human TYK2 using KKSRGDYMTMQIG as substrate at 1 uM in presence of 32P-ATP by Hotspot assay relative to control; values are per cent of control
[10] = molecular target: MAP kinase-activated protein kinase 3 (Homo sapiens) (UniProt Q16644); test: Inhibition of human MAPKAPK3 using KKLNRTLSVA as substrate at 1 uM in presence of 32P-ATP by Hotspot assay relative to control; values are per cent of control
[11] = molecular target: Protein kinase C beta type (Homo sapiens) (UniProt P05771); test: Inhibition of human PKCb1 using ERMRPRKRQGSVRRRV as substrate at 1 uM in presence of 32P-ATP by Hotspot assay relative to control; values are per cent of control
[12] = molecular target: Proto-oncogene tyrosine-protein kinase ROS (Homo sapiens) (UniProt P08922); test: Inhibition of human ROS/ROS1 using KKKSPGEYVNIEFG as substrate at 1 uM in presence of 32P-ATP by Hotspot assay relative to control; values are per cent of control
[13] = molecular target: T2, Mitogen-activated protein kinase kinase kinase 2 (Homo sapiens) (UniProt Q9Y2U5); test: Inhibition of human MEKK2 using myelin basic protein as substrate at 1 uM in presence of 32P-ATP by Hotspot assay relative to control; values are per cent of control
T2 sequence (whole entry): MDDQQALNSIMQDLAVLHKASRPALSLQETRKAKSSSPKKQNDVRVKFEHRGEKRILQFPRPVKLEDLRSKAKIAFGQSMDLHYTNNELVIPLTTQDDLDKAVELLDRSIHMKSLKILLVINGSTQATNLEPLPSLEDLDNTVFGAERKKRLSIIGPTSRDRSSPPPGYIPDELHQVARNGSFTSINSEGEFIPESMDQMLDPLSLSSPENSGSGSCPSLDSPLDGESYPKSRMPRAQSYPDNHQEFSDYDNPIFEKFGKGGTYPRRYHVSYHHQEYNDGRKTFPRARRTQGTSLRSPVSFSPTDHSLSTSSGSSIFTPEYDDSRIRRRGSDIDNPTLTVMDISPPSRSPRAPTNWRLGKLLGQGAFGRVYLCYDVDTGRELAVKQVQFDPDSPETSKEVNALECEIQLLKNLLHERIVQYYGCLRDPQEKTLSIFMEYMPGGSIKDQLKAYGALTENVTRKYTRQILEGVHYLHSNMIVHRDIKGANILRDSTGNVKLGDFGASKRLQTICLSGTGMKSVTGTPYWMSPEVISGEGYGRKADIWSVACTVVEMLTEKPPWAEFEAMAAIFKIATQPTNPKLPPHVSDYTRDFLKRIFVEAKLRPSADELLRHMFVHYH

[14] = molecular target: Serine/threonine-protein kinase 25 (Homo sapiens) (UniProt O00506); test: Inhibition of human STK25/YSK1 using myelin basic protein as substrate at 1 uM in presence of 32P-ATP by Hotspot assay relative to control; values are per cent of control

Calcium/calmodulin-dependent protein kinase type II subunit beta (Homo sapiens), sequence (Q13554 whole entry): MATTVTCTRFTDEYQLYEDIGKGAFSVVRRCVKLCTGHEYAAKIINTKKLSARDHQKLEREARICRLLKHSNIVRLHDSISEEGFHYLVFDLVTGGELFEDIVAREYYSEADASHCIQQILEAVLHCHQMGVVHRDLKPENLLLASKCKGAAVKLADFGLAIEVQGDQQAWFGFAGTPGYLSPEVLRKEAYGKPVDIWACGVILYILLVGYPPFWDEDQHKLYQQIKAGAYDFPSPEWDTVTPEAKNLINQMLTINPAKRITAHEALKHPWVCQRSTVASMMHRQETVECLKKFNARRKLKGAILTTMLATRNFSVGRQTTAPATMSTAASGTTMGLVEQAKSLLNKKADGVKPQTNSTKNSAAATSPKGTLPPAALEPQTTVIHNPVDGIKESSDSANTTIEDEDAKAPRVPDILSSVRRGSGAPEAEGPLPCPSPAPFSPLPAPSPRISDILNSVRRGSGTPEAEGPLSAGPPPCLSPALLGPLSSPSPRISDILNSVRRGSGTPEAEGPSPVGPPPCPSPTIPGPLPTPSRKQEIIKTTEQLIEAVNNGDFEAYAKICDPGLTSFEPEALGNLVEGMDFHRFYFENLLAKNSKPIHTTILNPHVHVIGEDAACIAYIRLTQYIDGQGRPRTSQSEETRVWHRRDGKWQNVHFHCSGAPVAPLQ
Non-receptor tyrosine-protein kinase TYK2 (Homo sapiens), sequence (P29597 whole entry): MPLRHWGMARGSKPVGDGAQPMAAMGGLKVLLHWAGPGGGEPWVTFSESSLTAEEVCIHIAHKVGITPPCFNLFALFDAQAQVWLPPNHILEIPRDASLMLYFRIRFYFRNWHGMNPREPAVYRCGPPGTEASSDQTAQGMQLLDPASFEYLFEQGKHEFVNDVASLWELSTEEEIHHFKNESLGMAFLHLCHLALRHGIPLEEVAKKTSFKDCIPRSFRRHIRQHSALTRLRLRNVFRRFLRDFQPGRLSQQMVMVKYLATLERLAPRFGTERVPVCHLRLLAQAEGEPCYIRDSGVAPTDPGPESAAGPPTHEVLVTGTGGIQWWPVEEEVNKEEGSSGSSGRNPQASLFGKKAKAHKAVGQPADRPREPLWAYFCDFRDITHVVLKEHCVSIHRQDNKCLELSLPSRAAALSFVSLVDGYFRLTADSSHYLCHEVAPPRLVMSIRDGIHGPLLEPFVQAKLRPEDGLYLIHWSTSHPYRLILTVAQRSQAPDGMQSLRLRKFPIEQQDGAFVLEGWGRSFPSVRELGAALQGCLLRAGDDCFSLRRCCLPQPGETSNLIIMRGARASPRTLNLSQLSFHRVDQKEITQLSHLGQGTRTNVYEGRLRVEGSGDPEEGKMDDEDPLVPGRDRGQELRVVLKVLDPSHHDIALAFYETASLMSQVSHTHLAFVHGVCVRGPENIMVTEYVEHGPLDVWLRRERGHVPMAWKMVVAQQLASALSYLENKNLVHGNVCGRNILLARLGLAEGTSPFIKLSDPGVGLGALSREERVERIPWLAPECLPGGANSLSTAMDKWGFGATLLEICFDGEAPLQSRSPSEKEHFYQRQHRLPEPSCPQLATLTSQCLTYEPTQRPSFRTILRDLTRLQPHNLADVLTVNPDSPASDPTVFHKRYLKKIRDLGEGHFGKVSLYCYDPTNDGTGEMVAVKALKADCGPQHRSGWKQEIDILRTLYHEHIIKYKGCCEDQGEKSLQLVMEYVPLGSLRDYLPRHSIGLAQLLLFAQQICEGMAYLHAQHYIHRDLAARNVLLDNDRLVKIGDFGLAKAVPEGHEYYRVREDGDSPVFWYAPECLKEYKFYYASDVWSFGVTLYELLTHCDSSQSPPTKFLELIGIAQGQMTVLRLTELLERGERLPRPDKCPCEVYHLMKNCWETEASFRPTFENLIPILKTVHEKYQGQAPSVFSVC
Serine/threonine-protein kinase pim-2 (Homo sapiens), sequence (Q9P1W9 whole entry, looked up): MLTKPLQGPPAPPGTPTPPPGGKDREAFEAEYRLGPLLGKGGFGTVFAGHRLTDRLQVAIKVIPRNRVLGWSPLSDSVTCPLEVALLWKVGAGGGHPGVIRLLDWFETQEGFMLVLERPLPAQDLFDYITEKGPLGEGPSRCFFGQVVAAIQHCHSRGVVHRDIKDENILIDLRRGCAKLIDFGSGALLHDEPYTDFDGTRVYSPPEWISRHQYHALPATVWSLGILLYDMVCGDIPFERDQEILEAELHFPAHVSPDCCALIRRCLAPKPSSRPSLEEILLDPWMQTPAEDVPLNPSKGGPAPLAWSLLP
Serine/threonine-protein kinase PLK1 (Homo sapiens), sequence (P53350 whole entry): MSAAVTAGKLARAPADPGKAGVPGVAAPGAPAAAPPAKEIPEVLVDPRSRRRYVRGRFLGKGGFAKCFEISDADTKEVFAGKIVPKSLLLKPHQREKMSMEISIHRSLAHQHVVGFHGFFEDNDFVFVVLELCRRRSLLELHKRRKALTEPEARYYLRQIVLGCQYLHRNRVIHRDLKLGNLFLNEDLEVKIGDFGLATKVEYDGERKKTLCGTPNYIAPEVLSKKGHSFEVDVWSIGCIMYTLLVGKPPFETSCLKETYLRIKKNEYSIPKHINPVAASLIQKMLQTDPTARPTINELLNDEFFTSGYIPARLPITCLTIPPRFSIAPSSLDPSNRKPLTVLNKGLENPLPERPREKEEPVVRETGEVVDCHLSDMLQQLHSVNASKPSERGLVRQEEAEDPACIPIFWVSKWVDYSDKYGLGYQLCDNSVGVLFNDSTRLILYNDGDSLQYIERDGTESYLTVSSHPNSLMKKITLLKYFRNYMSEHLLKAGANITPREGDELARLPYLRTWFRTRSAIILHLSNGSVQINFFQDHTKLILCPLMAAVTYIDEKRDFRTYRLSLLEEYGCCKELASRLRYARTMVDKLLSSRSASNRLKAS
Proto-oncogene tyrosine-protein kinase ROS (Homo sapiens), sequence (P08922 whole entry): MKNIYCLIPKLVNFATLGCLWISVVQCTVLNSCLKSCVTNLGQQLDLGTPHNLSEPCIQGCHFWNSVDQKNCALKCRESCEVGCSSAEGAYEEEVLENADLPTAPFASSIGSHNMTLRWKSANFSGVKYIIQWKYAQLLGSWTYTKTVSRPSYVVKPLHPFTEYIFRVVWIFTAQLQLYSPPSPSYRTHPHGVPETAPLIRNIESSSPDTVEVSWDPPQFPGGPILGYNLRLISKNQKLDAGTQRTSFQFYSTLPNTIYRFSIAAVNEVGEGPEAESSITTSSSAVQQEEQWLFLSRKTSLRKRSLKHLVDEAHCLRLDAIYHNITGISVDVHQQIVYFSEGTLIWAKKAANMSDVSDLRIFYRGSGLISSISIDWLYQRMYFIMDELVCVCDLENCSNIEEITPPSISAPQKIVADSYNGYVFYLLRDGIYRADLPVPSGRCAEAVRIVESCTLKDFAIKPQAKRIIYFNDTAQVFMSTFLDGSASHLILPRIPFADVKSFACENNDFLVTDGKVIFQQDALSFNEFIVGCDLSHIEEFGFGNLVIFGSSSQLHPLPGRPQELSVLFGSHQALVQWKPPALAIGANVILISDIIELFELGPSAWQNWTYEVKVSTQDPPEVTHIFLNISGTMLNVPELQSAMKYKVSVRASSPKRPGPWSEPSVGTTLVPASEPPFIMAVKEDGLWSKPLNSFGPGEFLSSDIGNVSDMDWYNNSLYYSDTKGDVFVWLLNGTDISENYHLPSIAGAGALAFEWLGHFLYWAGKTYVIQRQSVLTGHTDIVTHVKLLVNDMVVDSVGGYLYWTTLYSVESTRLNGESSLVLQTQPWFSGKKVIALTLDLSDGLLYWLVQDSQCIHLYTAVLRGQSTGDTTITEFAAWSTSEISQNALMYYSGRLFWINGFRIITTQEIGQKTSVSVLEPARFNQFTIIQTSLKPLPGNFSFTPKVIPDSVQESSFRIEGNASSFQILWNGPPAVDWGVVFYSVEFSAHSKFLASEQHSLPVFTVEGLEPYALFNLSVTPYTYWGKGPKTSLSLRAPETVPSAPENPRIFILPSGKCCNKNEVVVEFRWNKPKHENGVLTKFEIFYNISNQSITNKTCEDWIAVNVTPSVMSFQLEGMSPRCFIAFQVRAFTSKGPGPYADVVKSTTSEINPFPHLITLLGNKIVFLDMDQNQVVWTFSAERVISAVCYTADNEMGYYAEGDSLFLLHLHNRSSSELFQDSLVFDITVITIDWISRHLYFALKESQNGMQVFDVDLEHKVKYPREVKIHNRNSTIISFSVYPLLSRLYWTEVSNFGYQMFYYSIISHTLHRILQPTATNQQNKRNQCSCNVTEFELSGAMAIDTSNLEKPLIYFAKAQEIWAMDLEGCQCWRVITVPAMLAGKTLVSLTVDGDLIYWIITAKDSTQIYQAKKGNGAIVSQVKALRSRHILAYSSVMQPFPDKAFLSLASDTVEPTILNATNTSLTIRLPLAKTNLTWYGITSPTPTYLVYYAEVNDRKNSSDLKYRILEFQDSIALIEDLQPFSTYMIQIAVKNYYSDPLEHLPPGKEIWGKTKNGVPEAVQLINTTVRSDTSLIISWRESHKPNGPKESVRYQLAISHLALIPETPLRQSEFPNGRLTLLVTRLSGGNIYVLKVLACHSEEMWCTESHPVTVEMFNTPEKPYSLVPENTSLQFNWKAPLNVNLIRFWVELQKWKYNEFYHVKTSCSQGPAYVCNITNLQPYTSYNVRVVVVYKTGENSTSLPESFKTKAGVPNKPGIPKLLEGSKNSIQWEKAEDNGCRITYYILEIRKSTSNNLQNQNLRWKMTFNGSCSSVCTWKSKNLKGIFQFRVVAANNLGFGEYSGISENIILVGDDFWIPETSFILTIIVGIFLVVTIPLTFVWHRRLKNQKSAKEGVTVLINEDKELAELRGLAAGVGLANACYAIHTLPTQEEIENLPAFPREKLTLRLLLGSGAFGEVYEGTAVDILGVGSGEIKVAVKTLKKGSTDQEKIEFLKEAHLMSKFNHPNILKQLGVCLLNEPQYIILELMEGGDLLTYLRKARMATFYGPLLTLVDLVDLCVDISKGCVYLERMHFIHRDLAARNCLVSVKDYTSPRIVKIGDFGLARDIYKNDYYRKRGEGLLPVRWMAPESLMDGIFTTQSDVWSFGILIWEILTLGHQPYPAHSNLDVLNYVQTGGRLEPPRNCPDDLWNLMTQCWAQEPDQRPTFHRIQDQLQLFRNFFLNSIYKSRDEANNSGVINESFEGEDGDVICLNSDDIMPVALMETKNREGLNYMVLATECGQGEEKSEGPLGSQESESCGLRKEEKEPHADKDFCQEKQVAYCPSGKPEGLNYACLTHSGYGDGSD

Cc1cc(-c2cnc(N)c3c(-c4ccc5scnc5c4)csc23)n(C)n1
residual activity [1]: 94.6%
residual activity [2]: 100%
residual activity [3]: 98.6%
residual activity [4]: 92.1%
residual activity [5]: 93.7%
residual activity [6]: 5.38%
residual activity [7]: 89.8%
residual activity [8]: 102%
residual activity [9]: 99.4%
residual activity [10]: 90.7%
residual activity [11]: 96.1%
residual activity [12]: 78.1%
residual activity [13]: 106%
residual activity [14]: 106%

CNC(=O)c1ccc2c(c1)ncn2-c1ccc(CC(=O)OC(C)(C)C)cc1
residual activity [1]: 92.1%
residual activity [2]: 98.3%
residual activity [3]: 103%
residual activity [4]: 107%
residual activity [5]: 90.8%
residual activity [6]: 93.4%
residual activity [7]: 82.1%
residual activity [8]: 90.7%
residual activity [9]: 103%
residual activity [10]: 98%
residual activity [11]: 95%
residual activity [12]: 99%
residual activity [13]: 100%
residual activity [14]: 104%

CC(C)S(=O)(=O)c1ccc2nccc(Nc3ccc4scnc4c3)c2c1
residual activity [1]: 87.8%
residual activity [2]: 104%
residual activity [3]: 95.4%
residual activity [4]: 103%
residual activity [5]: 94.9%
residual activity [6]: 47.8%
residual activity [7]: 97.5%
residual activity [8]: 97%
residual activity [9]: 101%
residual activity [10]: 98.9%
residual activity [11]: 96.3%
residual activity [12]: 89.6%
residual activity [13]: 92.2%
residual activity [14]: 98.8%

Source: ChEMBL document CHEMBL5649166, “RIP3 induces apoptosis independent of pronecrotic kinase activity” (Mol Cell, 2014)
